# Data as given in patent publication US11433136B2, “Polyacetal polymers, conjugates, particles and uses thereof” (THE GENERAL HOSPITAL CORPORATION, priority 2015, dated 2022).
# Key:
# [1] = tested on: orthotopic AK4.4 pancreatic tumors; test: Orthotopic AK4.4 pancreatic tumor study in lean and obese mice; assay type: in vivo, mouse; details: for gene and protein expression of activated PSC marker αSMA in tumors: losartan 90 mg/Kg i.p. every day
# Description: Wild-type (WT) C57BL/6 and FVB male mice were originally obtained from Jackson Laboratory (The Jackson Laboratory, Bar Harbor, Me.) and bred and maintained in our defined-flora colony. KPC (Ptf1-Cre/LSL-KRAS^G12D/p53-R172H) and iKRAS (p48-Cre;R26-rtTa-IRES-EGFP;TetO-Kras^G12D mice) mice were obtained. To generate an obese model, mice (6-week old) were given either 10% or a 60% fat diet (D12450J and D12492, Research Diets, New Brunswick, N.J.) for 10 weeks (or until tumor collection in spontaneous models), as previously described (Surwit, R. S., et al. Metabolism: clinical and experimental 44, 645-651 (1995)). For implanted tumor experiments, AK4.4 cells (KrasG12D and p53 ? /) were isolated from mice generating spontaneous pancreatic tumors (Ptf1-Cre/LSL-Kras^G12D/p53Lox/ ? ) (Bardeesy, N., et al. Proc Natl Acad Sci USA 103, 5947-5952 (2006)). Orthotopic pancreatic tumors were generated by implanting a small piece (1 mm^3) of viable tumor tissue (from a source tumor in a separate animal) into the pancreas of a 6-8 week-old male lean or obese FVB (AK4.4 model) or C57BL/6 (PAN02 model) mouse. PAN02 tumor chunks and AK4.4 cells were authenticated by IDEXX laboratories. (PAN02: IDEXX RADIL Case #22366-2013. AK4.4: IDEXX RADIL Case #27818-2014). For AT1- and AT2-knockout studies, tumors were implanted into the pancreas of a 6-8-week-old male lean or obese C57BL/6, agtr1a−/− or agtr2−/− mice. With exception of PAN02, these orthotopically grown pancreatic cancers are characterized by a dense collagenous stroma, a hallmark of pancreatic cancer desmoplasia (Diop-Frimpong, B., et al. Proc Natl Acad Sci USA 108, 2909-2914 (2011)).
# For all experiments unless specified below, mice bearing orthotopic PAN02 or AK4.4 pancreatic tumors were randomized into treatment groups (or no treatment) and tumors were collected at day 21 after implantation. For tumor growth study with chemotherapy, mice were divided into treatment groups 7 days after implantation, and treated with either 5-FU (30 mg/Kg i.v. every 4 days) or an equal volume of saline by intravenous injection on days 7, 11 and 15 after implantation, with tumors collected at day 19. For tumor growth study with losartan, mice were treated with losartan (90 mg/Kg i.p. every day) or an equal volume of PBS intraperitoneally starting on day 5 after implantation and for the duration of the study. In the combined experiment of losartan and 5-FU, the same protocol was used for each drug as described above. TAN depletion by a Ly6G specific inhibitor (BioExcell, 4 mg/Kg i.p. every 2 days) was administered to PAN02 bearing animals starting at day 1 or day 7, and to AK4.4 bearing animals at day 7. IL-1β inhibition (MM425B, Endogen/Pierce Biotechnology, 2 mg/Kg i.p. every 2 days) was administered to PAN02 bearing animals starting at day 7. At the completion of the study, adipose tissue and tumor samples were collected, weighed, and processed for further analysis. When spontaneous models were used, tumors were collected when palpable.
# To assess obesity-induced ECM remodeling and fibrosis fibrillar collagen accumulation was quantified using second harmonic generation imaging, and collagen-I content, hyaluronan, MMPs levels and fibrosis related signaling pathways (e.g. AT-I, CTGF, TSP 1, TGFβ1, and P38/ERK signaling) were measured by rtPCR array, immunohistochemistry and immunoblotting. The topographical distribution and density of cancer-associated fibroblasts (CAFs) in tumor sections was detected by staining for αSMA activated fibroblast marker. Vessel morphology and perfusion was assessed using standard histological analyses.
# Tumor-bearing mice were perfused through intracardiac injection of PBS and sacrificed. Pancreatic tumor tissues were harvested, minced, and digested at 37° C. for 1 h with DMEM containing collagenase type 1A (1.5 mg/mL), hyaluronidase (1.5 mg/mL), and DNase (2 mg/mL). The digestion mixtures were filtered through 70-μm cell strainers. […]
# [2] = tested on: PDACs; test: Effect of losartan on immune cell populations in tumors (model not stated); set-up: species or system mice; details: mouse, in vivo
# Experimental: FIGS. 21A, 21B, and 21C show the effect of losartan on the immune tumor microenvironment. […] Error bars represent standard error of the mean. P values were determined by the Student t-test in A. *, P<0.05, **, P<0.01, ***, P<0.001.
# [3] = tested on: PDAC; details: in vivo; cited from earlier work
# [4] = tested on: cardiac and renal fibrosis; details: in vivo; cited from earlier work
# [5] = tested on: mouse models of Marfan syndrome; details: affected mice; cited from earlier work
# [6] = tested on: Marfan syndrome; details: children; cited from earlier work
Structure (SMILES),"reduction in tumor weight as compared to untreated controls ([1]; lean mice, 3 doses of 5-FU 30 mg/kg BW q4d)","effect on tumor weight ([1]; obese mice, 3 doses of 5-FU 30 mg/kg BW q4d)",enrichment for GR(+)F480(−) cells within the CD45 population [2],enrichment for T regulatory cells within CD4 cells [2],gene and protein expression of activated PSC marker αSMA in tumors ([1]; lean mice),"tumor weight, losartan monotherapy ([1]; obese mice)",gene and protein expression of activated PSC marker αSMA in tumors ([1]; obese mice),"obesity-induced abnormal expression of desmoplasia-related markers and AT1 downstream signaling ([1]; obese mice, effects only modest in lean animals)","response to chemotherapy with AT1 blockade ([1]; obese mice, somewhat effective in the lean setting, losartan plus 5-FU)","gene and protein expression of collagen-I and fibrillar collagen in tumors ([1]; obese, but not lean mice, losartan)",desmoplasia in PDAC [3],"vascular perfusion, drug delivery and chemotherapy effectiveness [3]",incidence of cardiac and renal fibrosis [4],blood vessel architecture and aortic aneurysms [5],progression of aortic and muscular lesions [6]
"O=c1[nH]cc(F)c(=O)[nH]1 [Example 5-FU, 5-fluorouracil]",50%,did not significantly reduce tumor weight,,,,,,,,,,,,,
CCCCc1nc(Cl)c(CO)n1Cc1ccc(-c2ccccc2-c2nn[nH]n2)cc1 [losartan],,,tended to decrease the enrichment for GR(+)F480(−) cells,tended to decrease the enrichment,only mildly,reduced tumor weight,reduce,normalized,improved therapeutic response in tumors to a greater extent,decrease,can reduce desmoplasia in PDAC,"can enhance vascular perfusion by decompressing vessels, leading to improved drug delivery and chemotherapy effectiveness",reduce the incidence of cardiac and renal fibrosis,striking effects in improving blood vessel architecture and prevented the development of aortic aneurysms,can strikingly prevent progression of aortic and muscular lesions
